Here are results for 15 molecules from patent US20050019826A1 (priority 2000, published 2005).

The subject of test [1] is KDR. As to the kind of experiment: Displacement of 125I-VEGF165 binding to CHO-KDR transfected cells by V1 derivatives. The following applies: for peptide efficiency after change of C-terminal arginine: compared with V1; for Efficiency (% Emax): relative to V1 = 100. The source says:
FIG. 11. […] Experimental conditions are indicated in the legend of FIG. 10.
FIG. 12. […] Experimental conditions are indicated in the legend of FIG. 10.
(§1) Experimental conditions are indicated in the legend of FIG. 10.
FIG. 17. […] Experimental conditions are indicated in the legend of FIG. 10.

Test [2] has as its system KDR. The test is described as follows: Competition assay of 125I-VEGF binding to CHO-KDR cells. Further details: block of VEGF binding to CHO-KDR cells: dose or concentration left out as unconfirmed. The following applies: for inhibitory effect on VEGF binding to KDR: fixed peptide concentration 2.1×10^−4M, heparin 1.8 μg/ml. As to the method:
FIG. 1. […] (B) Effect of heparin. […] Data correspond to the mean and standard deviations of triplicate samples.
FIG. 4. […] Data represent the means and standard deviations of triplicate samples.
FIG. 5. […] Data represent the mean and standard deviations of triplicate samples.
Competition assay of binding to CHO-KDR cells. CHO-KDR cells were seeded in 24-well plates at a density of 5×10^5 cells/well. After 24 h, subconfluent plates were transferred at 4° C., and all subsequent operations were done at 4° C. […] After 3 h, cells were washed five times with binding buffer and solubilized by the addition of 0.5 M NaOH. The amount of radioactivity bound to the cells was counted in a gamma counter (LKB 1261 Multigamma). The receptor affinity and the number of binding sites per cell were determined by Scatchard's analysis (Scatchard, 1986).

Test [3] has as its system KDR. The test is described as follows: ELISA of the phage-displayed peptide binding to CHO-KDR cells. The following applies: clones selected by anti-VEGF antibody binding, 10^12 pfu/ml. Here is the method:
FIG. 2. […] Clones selected by KDR binding (10^13 pfu/ml) (A) or by anti-VEGF antibody binding (10^12 pfu/ml) (B) were compared with M13 phage particles (control). Results are representative of three independent assays.
Exponentially growing CHO-KDR cells were seeded in 96-well microtiter plates at 7×10^4 cells/well and left overnight at 37° C. Cells were fixed with paraformaldehyde (4% in PBS) for 15 min at room temperature and washed with PBS. Wells were then filled with PBS-Glycine 0.2%, kept for 15 min at room temperature and then washed with PBS. Phage particles (10^12 or 10^13/ml) were added to each well and incubated 2 h at room temperature. Wells were washed with PBS and the amount of bound phage was detected with peroxidase-conjugated anti-M13 phage serum (Pharmacia Biotech, Uppsala, Sweden).

Test [4] has as its system Calf pulmonary artery endothelial cells (CPAE). The test is described as follows: CPAE cell proliferation assay (BrdU incorporation). The test is classed as cell-based. The following applies: 2.1×10^−4M synthetic peptide, 24 h. Here is the method: FIG. 3. The anti-VEGF antibody blocks CPAE cell growth. CPAE cell growth was measured in cultures supplemented with various concentrations of anti-VEGF antibody and compared with untreated cultures. Data represent means and standard deviations of proliferation inhibition for triplicate samples and are representative of two independent experiments.
FIG. 6. V1 inhibits CPAE cell proliferation. CPAE cell growth was measured after 24h of incubation in presence of synthetic peptides selected by antibody binding (A) or by KDR binding (B) and compared with untreated cultures. Data represent means and standard deviations of proliferation inhibition for triplicates and are representative of three independent experiments.
(§2) Cell proliferation assay. To test the anti-VEGF antibody neutralizing effect, CPAE cells were plated into 96-well tissue culture plates at a density of 500 cells/well. After 24 h, various concentrations of anti-VEGF antibody were added. The cells were cultured for an additional day and cell proliferation was measured using the Cell proliferation ELISA kit from Boerhinger (Indianapolis, Ind.). Cells were incubated with BrdU for 4 h at 37° C., and the incorporation of BrdU in newly synthetized DNA was quantified by immunoassay as described by the manufacturer. To investigate the peptide effect, after 24 h of CPAE cell growth, 2.1×10^−4M synthetic peptides were added daily to the culture medium. Cell proliferation was assessed after 24 h, 48 h or 72 h as described above. […] Cells were trypsinized and counted after 5 days using a Coulter counter.

The subject of test [5] is Human Umbilical Artery Endothelial Cells (HUAE). The test is described as follows: HUAE cell proliferation induced by VEGF. Type of test: cell-based. The following applies: 2 ng/ml VEGF, peptide daily, 5 days. Here is the method:
(§3) FIG. 7. […] Cells were counted after 5 days. Data are means of proliferation inhibition percentages for triplicate samples.
as §2

Test [6] addresses T1, KDR (Homo sapiens, UniProt P35968).
T1 construct: endogenous in cells; host or cells: HUAE cells
As to the kind of experiment: HUAE cell proliferation induced by KDR anti-idiotypic antibodies (AIA). The test is classed as cell-based. The following applies: 100 ng/ml KDR anti-idiotypic antibodies, peptide daily, 5 days. Here is the method:
as §3, §2

The test system of test [7] is NIH 3T3 fibroblasts. As to the kind of experiment: NIH3T3 fibroblast proliferation. Type of test: cell-based. The following applies: 24 h. As to the method:
FIG. 8. V1 acts specifically on endothelial cells. CPAE and NIH 3T3 fibroblasts were cultured with or without V1 peptide, and the changes in cell proliferation were measured after 24 h. Data represent the means and standard deviations of proliferation inhibition percentages for triplicate samples, and similar results were obtained in two independent experiments.
as §2

Test [8] has as its system VEGF-induced corneal angiogenesis. The test is described as follows: Rabbit corneal pocket assay. The following applies: day 12; for effect on VEGF-induced corneal angiogenic response: implant 2 pmol VEGF + 30 nmol peptide; for neovascularization by peptide compared with vehicle alone: implant 30 nmol peptide, absence of VEGF. The test is classed as in vivo, New Zealand rabbit. As to the method:
FIG. 9. V1 inhibits corneal angiogenesis in vivo.
Rabbit corneal pocket assay. […] These implants were inserted in New Zealand rabbit (Elevage du Trottis, Esperce, France) corneal stroma 2 mm away from the limbus (Favard et al, 1991). Neovascularization was assessed on day 12 by direct examination with a slit lamp and scored according to a 4 grade scale (grade 1: less than 1 mm long neovessels, grade 2: 1 mm long neovessels, grade 3: 1 to 2 mm long neovessels, grade 4: neovessels extending to the implant). Means and standard deviations were determined on 8 implant groups for each condition.

Test [9] deals with Human umbilical vein endothelial cell (HUVEC). As to the kind of experiment: VEGF165 induced HUVEC proliferation. The following applies: V1 400 μg/ml, various VEGF165 concentrations, 96 hours. Type of test: cell-based. Here is the method: FIG. 13. Effect of V1 (400 μg/ml) VEGF165 induced HUVEC proliferation. Various concentrations of VEGF165 were added during 96 hours.
The inhibitory effect of V1 on Human umbilical vein endothelial cell (HUVEC) in primary culture.

The subject of test [10] is VEGF-R2 on HUV-EC Cells. The test is described as follows: 125I-VEGF165 binding to HUV-EC cells (Scatchard). The following applies: V1 40 μg/ml. Further details: species or system human.
Source text: as §1
(see FIGS. 16A, B and C).

The test system of test [11] is 125I-VEGF-receptor complexes (VEGF-R2, NP1) on HUV-EC cells. The test is described as follows: Cross linking of 125I VEGF165 to HUV-EC cells. The test is classed as binding, human. The following applies: V1 2.4×10^−4M and 4.8×10^−4M, 125I VEGF165 160 pM. The text has this: FIG. 19. […] 1: Total binding. […] 3: V1, (2.4×10^−4M). 4: V1, (4.8×10^−4M).
Test [12] has as its target T2, recombinant KDR expressed at the membrane surface of CHO-KDR cells (UniProt P35968 20-1356, limits assumed).
T2 construct: whole, on cells; also called VEGFR-2; VEGF-R2
As to the kind of experiment: displacement of 125I-VEGF165 from CHO-KDR transfected cells. As to the method: Competition assay of binding to CHO-KDR cells. CHO-KDR cells were seeded in 24-well plates at a density of 5×10⁵ cells/well. After 24 h, subconfluent plates were transferred at 4° C., and all subsequent operations were done at 4° C. […] After 3 h, cells were washed five times with binding buffer and solubilized by the addition of 0.5 M NaOH. The amount of radioactivity bound to the cells was counted in a gamma counter (LKB 1261 Multigamma). The receptor affinity and the number of binding sites per cell were determined by Scatchard's analysis (Scatchard, 1986).

The mark [13] stands for this setting: heparin various amounts, PlGF 50 ng/ml.

Entries after “also recorded” stand apart in the source; their conditions may differ. Ends that are not written are not given here.

T2 sequence (P35968 20-1356 limits assumed): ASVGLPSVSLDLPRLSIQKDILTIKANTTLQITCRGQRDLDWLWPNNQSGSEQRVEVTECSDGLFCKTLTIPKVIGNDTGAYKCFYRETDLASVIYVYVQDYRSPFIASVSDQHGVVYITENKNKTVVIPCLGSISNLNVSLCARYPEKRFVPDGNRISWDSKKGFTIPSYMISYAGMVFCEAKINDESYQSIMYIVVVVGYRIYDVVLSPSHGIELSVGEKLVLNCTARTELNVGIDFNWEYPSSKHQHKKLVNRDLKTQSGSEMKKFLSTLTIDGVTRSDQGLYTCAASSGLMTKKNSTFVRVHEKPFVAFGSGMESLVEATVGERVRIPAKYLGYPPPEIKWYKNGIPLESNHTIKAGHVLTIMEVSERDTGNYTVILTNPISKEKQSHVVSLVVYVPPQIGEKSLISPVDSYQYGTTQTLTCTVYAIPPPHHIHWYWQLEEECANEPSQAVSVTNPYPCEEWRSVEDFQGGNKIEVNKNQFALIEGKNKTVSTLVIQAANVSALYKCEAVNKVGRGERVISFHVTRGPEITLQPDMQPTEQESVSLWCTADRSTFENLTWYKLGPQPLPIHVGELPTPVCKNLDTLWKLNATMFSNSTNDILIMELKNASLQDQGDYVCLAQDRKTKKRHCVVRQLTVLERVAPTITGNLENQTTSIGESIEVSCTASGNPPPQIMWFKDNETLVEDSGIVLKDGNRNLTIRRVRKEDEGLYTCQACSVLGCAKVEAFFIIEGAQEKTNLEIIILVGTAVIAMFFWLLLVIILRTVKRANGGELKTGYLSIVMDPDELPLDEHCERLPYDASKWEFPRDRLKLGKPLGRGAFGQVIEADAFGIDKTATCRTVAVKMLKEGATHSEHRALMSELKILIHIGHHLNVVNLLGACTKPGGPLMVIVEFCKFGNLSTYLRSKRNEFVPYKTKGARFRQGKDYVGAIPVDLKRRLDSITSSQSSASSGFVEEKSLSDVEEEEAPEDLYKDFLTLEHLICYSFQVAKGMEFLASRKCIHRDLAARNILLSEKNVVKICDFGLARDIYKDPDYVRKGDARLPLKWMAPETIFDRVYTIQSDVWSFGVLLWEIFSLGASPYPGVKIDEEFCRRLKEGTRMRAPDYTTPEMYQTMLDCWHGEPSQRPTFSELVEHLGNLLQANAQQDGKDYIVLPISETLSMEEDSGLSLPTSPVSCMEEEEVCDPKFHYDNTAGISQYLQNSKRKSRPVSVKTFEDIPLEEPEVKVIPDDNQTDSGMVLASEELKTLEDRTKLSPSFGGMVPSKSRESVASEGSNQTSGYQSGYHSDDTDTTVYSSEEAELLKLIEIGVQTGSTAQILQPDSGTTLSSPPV
T1 sequence (P35968 20-1356): as the sequence (P35968 20-1356 limits assumed) above

Take “AAWLPPK [A9, V1 analogue, C-terminal arginine substituted by lysine]”: the “peptide efficiency after change of C-terminal arginine” value in test [1] is “also reduced the peptide efficiency”.

Turning to AAWLPPR [A2], in test [1], the “Efficiency (% Emax)” value is given as 61 % Emax.

In the case of ATALPP [A10], in test [1], the “peptide efficiency after change of C-terminal arginine” value is listed as “significantly reduced the peptide efficiency”.

ATALPPR [A3]: in test [1], the “Efficiency (% Emax)” value was found to be 70 % Emax.

With ATWAPPR [A4], the “Efficiency (% Emax)” value in test [1] worked out at 31 % Emax.

With ATWLAPR [A5], in test [1], the “Efficiency (% Emax)” value was found to be 65 % Emax.

As for ATWLPAR [A6], the “Efficiency (% Emax)” value in test [1] stood at 84 % Emax.

For ATWLPPA [A7], in test [1] (AlaScan), the “activity of alanine-substituted analogues in displacement of 125I-VEGF165” value is recorded as “totally devoid of activity”. Also, the “Efficiency (% Emax)” value in test [1] was 0 % Emax.

For ATWLPPR [V1, ATWLPPR], in test [2], the “block of VEGF binding to CHO-KDR cells” value is on record as “nearly block VEGF binding” and the “inhibitory effect on VEGF binding to KDR” value was “showed an inhibitory effect”. Further, in [2] (read-out: IC50 for inhibition of VEGF binding to CHO-KDR cells, estimated), the IC50 is 80 µM. In addition, the “ELISA signal of phage clone binding to CHO-KDR cells” value in test [3] is “best reactivities”. Also, in test [4], the “reduction of CPAE cell proliferation” value was 60%. For the same molecule, the “effect on VEGF-induced proliferation of human endothelial cells” value in [5] was “suppressed the mitogenic activity of VEGF in a dose dependent manner”. Besides, the “effect on AIA-dependent cell proliferation” value in [6] is on record as “could suppress the AIA-dependent cell proliferation”. Moreover, the “effect on NIH 3T3 fibroblast proliferation” value in [7] is reported as “did not modify the proliferation”. Besides, in [8], the “effect on VEGF-induced corneal angiogenic response” value is “totally abolished” and the “neovascularization by peptide compared with vehicle alone” value was “did not improve the generation of new blood vessels”. For the same molecule, the “effect on binding and affinity of 125I VEGF165 to VR2 on transfected CHO cells” value in test [1] (50 μg/ml V1, Scatchard) is listed as “inhibited the binding; also recorded: affinity is lowered”. Moreover, the IC50 in test [1] (125I-VEGF 7 pM, heparin 1 μg/ml, 3 hours +4° C., read-out: CI50 (the source's name)) was 18.8 µM. Also, in test [1] (V1 50 μg/ml), the “effect on heparin agonistic effect on VEGF165 binding” value is given as “inhibited this heparin agonistic effect”. Moreover, the “Efficiency (% Emax)” value in [1] is on record as 100 % Emax. The “effect on VEGF-induced HUVEC proliferation” value in test [9] is reported as “inhibited by V1 in a non competitive manner”. For the same molecule, in test [10], the “effect on VEGF binding to HUV-EC receptors” value is “inhibited only the VEGF binding to high affinity receptors”. The “labeling of 125I-VEGF-receptor complexes (240-260 kDa and 160-170 kDa)” value in test [11] is reported as “decreased”.

With ILDNYKL [V5], the “effect on VEGF binding to CHO-KDR cells” value in [2] (various concentrations, same conditions as V1) is on record as “did not modify VEGF binding”. For the same molecule, the “effect on VEGF-induced proliferation of human endothelial cells” value in test [5] is on record as “no inhibitory effect”. In test [8], the “effect on VEGF-induced corneal angiogenic response” value is reported as “not modified” and the “neovascularization by peptide compared with vehicle alone” value was “did not improve the generation of new blood vessels”.

Turning to LPPNPTK [V6], the “inhibitory effect on VEGF binding to KDR” value in test [2] is “did not affect the binding of VEGF to KDR; also recorded: no effect on VEGF binding to KDR”. The “ELISA signal of phage clone binding to CHO-KDR cells” value in test [3] is listed as “best reactivities”. In test [4], the “reduction of CPAE cell proliferation” value was “significantly inhibited the proliferation of endothelial cells”.

Take SLPAHAR [K4]: the “inhibitory effect on VEGF binding to KDR” value in test [2] is given as “could partially inhibit VEGF binding to KDR”. The “reduction of CPAE cell proliferation” value in [4] is reported as “minor effect on endothelial growth”.

Consider heparin [reference compound], for which the “optimal heparin concentration for increasing VEGF binding” value in [2] was 1.8 µg/mL. Also, in [2] (setting [13]), the “effect on VEGF binding to CHO-KDR cells” value is “increase the binding of VEGF”.

B1: PlGF: placenta growth factor (R & D Systems) (protein)
chain: AVPPQQWALSAGNGSSEVEVVPFQEVWGRSYCRALERLVDVVSEYPSEVEHMFSPSCVSLLRCTGCCGDENLHCVPVETANVTMQLLKIRSGDRPSYVELTFSQHVRCECRPLREKMKPERCGDAVPRR
Regarding B1, in test [2] (setting [13]), the “effect on VEGF binding to CHO-KDR cells” value is given as “not modifying VEGF binding”.

B2: V1 analogue A7 (Ala7-substituted analogue) (peptide)
peptide: ATWLPPA
notes: AlaScan analogue of ATWLPPR
For the molecule B2, the “Efficiency (% Emax)” value in [12] is 0 % Emax.
